A word on the IC50: it is the concentration that inhibits the measured activity by half.

The source of these data is patent publication US20230278981A1, “DICHLOROPHENOL HSD17B13 INHIBITORS AND USES THEREOF” (INIPHARM, INC., priority 2020, published 2023).

The experiment concerns the target HSD17B13 (Homo sapiens (Human), UniProt Q7Z5P4). Nature of the experiment: LC/MS estrone detection assay: conversion of estradiol to estrone by HSD17B13. It is filed as biochemical. The note with it: 4 μM estradiol, 6 mM NAD+, 30 nM HSD17B13 enzyme (E. coli expressed His-tagged), 2 hours at 26.5° C. The procedure, abridged:
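His-tagged E. coli-expressed HSD17B13 (30 nM) with 4 μM estradiol and 6 mM NAD+ in 1 M potassium phosphate pH 7.4, 0.5% DMSO, 2 h at 26.5° C. Estrone and estradiol quantified by LC-MS/MS after MeCN quench with D4-estrone internal standard; activity as % of uninhibited enzyme, IC50 by four-parameter fit, duplicates.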

Chain of HSD17B13 (Q7Z5P4 20-300): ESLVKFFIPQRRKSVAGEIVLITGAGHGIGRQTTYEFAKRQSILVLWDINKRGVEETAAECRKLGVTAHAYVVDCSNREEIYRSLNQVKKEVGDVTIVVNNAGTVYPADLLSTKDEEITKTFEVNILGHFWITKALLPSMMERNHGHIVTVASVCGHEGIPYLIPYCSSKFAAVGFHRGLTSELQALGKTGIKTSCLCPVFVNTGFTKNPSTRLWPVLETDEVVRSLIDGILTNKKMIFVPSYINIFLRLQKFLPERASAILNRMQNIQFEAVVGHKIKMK

In the case of `[2H]C([2H])(c1ccccc1C(F)(F)F)n1c(C)nc2c(C)ccc(NC(=O)c3cc(Cl)c(O)c(Cl)c3)c2c1=O` [Example 200, 3,5-dichloro-N-(2,8-dimethyl-4-oxo-3-((2-(trifluoromethyl)phenyl)methyl-d2)-3,4-dihydroquinazolin-5-yl)-4-hydroxybenzamide], the IC50 was not above 100 nM.

With `O=C(Nc1cccc2ncnc(NCc3ccccc3OC(F)F)c12)c1cc(Cl)c(O)c(Cl)c1` [Example 54, 3,5-dichloro-N-[4-({[2-(difluoromethoxy)phenyl]methyl}amino)quinazolin-5-yl]-4-hydroxybenzamide], the 50% inhibitory concentration (IC50) was in the range of 1000 to 10000 nM.

In the case of `Cn1ccc(Cn2cnc3cccc(NC(=O)c4cc(Cl)c(O)c(Cl)c4)c3c2=O)n1` [Example 56, 3,5-dichloro-4-hydroxy-N-{3-[(1-methyl-1H-pyrazol-3-yl)methyl]-4-oxo-3,4-dihydroquinazolin-5-yl}benzamide], the IC50 was in the range of 500 to 1000 nM.

On to `Cc1ccc(NC(=O)c2cc(Cl)c(O)c(Cl)c2)c2c(=O)n(Cc3ccccc3C(F)(F)F)c(C)nc12` [Example 151, 3,5-dichloro-N-(2,8-dimethyl-4-oxo-3-(2-(trifluoromethyl)benzyl)-3,4-dihydroquinazolin-5-yl)-4-hydroxybenzamide], for which the IC50 was not above 100 nM.

Molecule `O=C(Nc1cccc2ncn(CC3CC3)c(=O)c12)c1cc(Cl)c(O)c(Cl)c1` [Example 3, 3,5-dichloro-N-(3-(cyclopropylmethyl)-4-oxo-3,4-dihydroquinazolin-5-yl)-4-hydroxybenzamide] showed an IC50 of 100 to 500 nM.

The molecule `O=C(Nc1cccc2ncn(Cc3ccc(C(F)(F)F)nc3)c(=O)c12)c1cc(Cl)c(O)c(Cl)c1` [Example 19, 3,5-dichloro-4-hydroxy-N-(4-oxo-3-((6-(trifluoromethyl)pyridin-3-yl)methyl)-3,4-dihydroquinazolin-5-yl)benzamide] registered a half-maximal inhibitory concentration (IC50) of 100 to 500 nM.

`O=C(Nc1cccc2ncn(Cc3ccn(-c4ccccc4)n3)c(=O)c12)c1cc(Cl)c(O)c(Cl)c1` [Example 77, 3,5-dichloro-4-hydroxy-N-(4-oxo-3-((1-phenyl-1H-pyrazol-3-yl)methyl)-3,4-dihydroquinazolin-5-yl)benzamide] yielded a concentration for half-maximal inhibition (IC50) of 100 to 500 nM.

`[2H]C([2H])([2H])c1nc2c(C)ccc(NC(=O)c3cc(Cl)c(O)c(Cl)n3)c2c(=O)n1Cc1ccccc1C(F)(F)F` [Example 180, 4,6-dichloro-5-hydroxy-N-(8-methyl-2-(methyl-d3)-4-oxo-3-(2-(trifluoromethyl)benzyl)-3,4-dihydroquinazolin-5-yl)picolinamide] showed an IC50 of 100 to 500 nM.

`Cc1nc2c(F)ccc(NC(=O)c3cc(Cl)c(O)c(Cl)c3)c2c(=O)n1[C@@H](C)c1ccccc1OC(F)(F)F` [Example 173, (S)-3,5-dichloro-N-(8-fluoro-2-methyl-4-oxo-3-(1-(2-(trifluoromethoxy)phenyl)ethyl)-3,4-dihydroquinazolin-5-yl)-4-hydroxybenzamide]: the IC50 lay in the range of 100 to 500 nM.

On to `CC(C)(C)CCn1cnc2cccc(NC(=O)c3cc(Cl)c(O)c(Cl)n3)c2c1=O` [Example 61, 4,6-dichloro-N-(3-(3,3-dimethylbutyl)-4-oxo-3,4-dihydroquinazolin-5-yl)-5-hydroxypicolinamide], for which the half-inhibitory concentration (IC50) lay within 100 to 500 nM.

As to `Cn1nc(NC(=O)c2cc(Cl)c(O)c(Cl)n2)c2c(=O)n(Cc3ccccc3)cnc21` [Example 107, N-(5-benzyl-1-methyl-4-oxo-4,5-dihydro-1H-pyrazolo[3,4-d]pyrimidin-3-yl)-4,6-dichloro-5-hydroxypicolinamide], the IC50 is 500 to 1000 nM.

Molecule `O=C(Nc1scnc1C(=O)NCc1cccc(F)c1)c1cc(Cl)c(O)c(Cl)n1` [Example 189, 5-(4,6-dichloro-5-hydroxypicolinamido)-N-(3-fluorobenzyl)thiazole-4-carboxamide] displayed a 50% inhibitory concentration (IC50) of 100 to 500 nM.

`Cn1nc(CNC(=O)c2ncsc2NC(=O)c2cc(Cl)c(O)c(Cl)n2)c2ccccc21` [Example 187, 5-(4,6-dichloro-5-hydroxypicolinamido)-N-((1-methyl-1H-indazol-3-yl)methyl)thiazole-4-carboxamide] returned a half-maximal inhibitory concentration (IC50) of 100 to 500 nM.

On to `Cc1nc2c(F)ccc(NC(=O)c3cc(Cl)c(O)c(Cl)n3)c2c(=O)n1[C@H]1CC[C@@H]1c1ccccc1` [Example 207, 4,6-dichloro-N-(8-fluoro-2-methyl-4-oxo-3-((1S,2R)-2-phenylcyclobutyl)-3,4-dihydroquinazolin-5-yl)-5-hydroxypicolinamide], for which the IC50 lay in the range of 100 to 500 nM.

`Cc1ccc2ncn(Cc3ccccc3OC(F)(F)F)c(=O)c2c1NC(=O)c1cc(Cl)c(O)c(Cl)c1` [Example 94, 3,5-dichloro-4-hydroxy-N-(6-methyl-4-oxo-3-(2-(trifluoromethoxy)benzyl)-3,4-dihydroquinazolin-5-yl)benzamide] returned a 50% inhibitory concentration (IC50) of 100 to 500 nM.

The molecule `O=C(Nc1ccc(F)c2ncn(Cc3ccccc3OC(F)(F)F)c(=O)c12)c1cc(Cl)c(O)c(Cl)c1` [Example 132, 3,5-dichloro-N-(8-fluoro-4-oxo-3-{[2-(trifluoromethoxy)phenyl]methyl}-3,4-dihydroquinazolin-5-yl)-4-hydroxybenzamide] had an IC50 not above 100 nM.

Turning to `O=C(Nc1sc(C(F)(F)F)nc1C(=O)NCc1ccccc1OC(F)(F)F)c1cc(Cl)c(O)c(Cl)c1` [Example 125, 5-(3,5-dichloro-4-hydroxybenzamido)-N-(2-(trifluoromethoxy)benzyl)-2-(trifluoromethyl)thiazole-4-carboxamide], the IC50 lay in the range of 100 to 500 nM.

Take `CC(C)(C)n1ccc(Cn2cnc3cccc(NC(=O)c4cc(Cl)c(O)c(Cl)n4)c3c2=O)n1` [Example 62, N-(3-((1-(tert-butyl)-1H-pyrazol-3-yl)methyl)-4-oxo-3,4-dihydroquinazolin-5-yl)-4,6-dichloro-5-hydroxypicolinamide]: the IC50 lay within 100 to 500 nM.

`CS(=O)(=O)c1ccc(Cn2cnc3cccc(NC(=O)c4cc(Cl)c(O)c(Cl)c4)c3c2=O)cc1` [Example 59, 3,5-dichloro-4-hydroxy-N-(3-(4-(methylsulfonyl)benzyl)-4-oxo-3,4-dihydroquinazolin-5-yl)benzamide] had an IC50 of 1000 to 10000 nM.

As to `O=C(Nc1nccc2ncn(Cc3ccccc3OC(F)(F)F)c(=O)c12)c1cc(Cl)c(O)c(Cl)c1` [Example 124, 3,5-dichloro-4-hydroxy-N-(4-oxo-3-(2-(trifluoromethoxy)benzyl)-3,4-dihydropyrido[4,3-d]pyrimidin-5-yl)benzamide], the 50% inhibitory concentration (IC50) was in the range of 1000 to 10000 nM.

The molecule `O=C(Nc1ccnc2ncn(Cc3ccccc3OC(F)(F)F)c(=O)c12)c1cc(Cl)c(O)c(Cl)c1` [Example 92, 3,5-dichloro-4-hydroxy-N-(4-oxo-3-(2-(trifluoromethoxy)benzyl)-3,4-dihydropyrido[2,3-d]pyrimidin-5-yl)benzamide] gave a half-maximal inhibitory concentration (IC50) of 100 to 500 nM.

The molecule `O=C(Nc1scnc1C(=O)NCc1ccccc1F)c1cc(Cl)c(O)c(Cl)c1` [Example 33, 5-(3,5-dichloro-4-hydroxybenzamido)-N-(2-fluorobenzyl)thiazole-4-carboxamide] showed an IC50 of 100 to 500 nM.

In the case of `[2H]C([2H])([2H])c1nc2c(F)ccc(NC(=O)c3cc(Cl)c(O)c(Cl)c3)c2c(=O)n1Cc1ccccc1C(F)(F)F` [Example 171, 3,5-dichloro-N-(8-fluoro-2-(methyl-d3)-4-oxo-3-(2-(trifluoromethyl)benzyl)-3,4-dihydroquinazolin-5-yl)-4-hydroxybenzamide], the half-maximal inhibitory concentration (IC50) was 100 to 500 nM.

Molecule `Cc1ccc(NC(=O)c2cc(Cl)c(O)c(Cl)c2)c2c(=O)n(Cc3ncccc3F)c(C)nc12` [Example 183, 3,5-dichloro-N-(3-((3-fluoropyridin-2-yl)methyl)-2,8-dimethyl-4-oxo-3,4-dihydroquinazolin-5-yl)-4-hydroxybenzamide] gave a concentration for half-maximal inhibition (IC50) of 100 to 500 nM.

For the molecule `O=C(Nc1cccc2ncn([C@H]3C[C@@H]3c3ccccc3)c(=O)c12)c1cc(Cl)c(O)c(Cl)n1` [Example 109, 4,6-dichloro-5-hydroxy-N-(4-oxo-3-((1S,2R)-2-phenylcyclopropyl)-3,4-dihydroquinazolin-5-yl)picolinamide], the IC50 was in the range of 1000 to 10000 nM.

With `C[C@@H](c1cccc(F)c1)n1cnc2cccc(NC(=O)c3cc(Cl)c(O)c(Cl)c3)c2c1=O` [Example 12, (S)-3,5-dichloro-N-(3-(1-(3-fluorophenyl)ethyl)-4-oxo-3,4-dihydroquinazolin-5-yl)-4-hydroxybenzamide], the IC50 was not above 100 nM.

With `Cc1ccc(NC(=O)c2cc(Cl)c(O)c(Cl)n2)c2c(=O)n(Cc3ccccc3C(F)(F)F)c(C)nc12` [Example 163, 4,6-dichloro-N-(2,8-dimethyl-4-oxo-3-(2-(trifluoromethyl)benzyl)-3,4-dihydroquinazolin-5-yl)-5-hydroxypicolinamide], the IC50 lay in the range of 100 to 500 nM.

The molecule `O=C(Nc1cccnc1C(=O)NCc1ccccc1OC(F)(F)F)c1cc(Cl)c(O)c(Cl)c1` [Example 69, 3-(3,5-dichloro-4-hydroxybenzamido)-N-(2-(trifluoromethoxy)benzyl) picolinamide] had an IC50 of 100 to 500 nM.

Consider `O=C(Nc1cccc2ncn(Cc3ccc(OC(F)(F)F)cc3)c(=O)c12)c1cc(Cl)c(O)c(Cl)n1` [Example 50, 4,6-dichloro-5-hydroxy-N-(4-oxo-3-(4-(trifluoromethoxy)benzyl)-3,4-dihydroquinazolin-5-yl)picolinamide], for which the IC50 lay within 100 to 500 nM.

With `COc1ccccc1CCNC(=O)c1sccc1NC(=O)c1cc(Cl)c(O)c(Cl)c1` [Example 35, 3-(3,5-dichloro-4-hydroxybenzamido)-N-(2-methoxyphenethyl)thiophene-2-carboxamide], the half-maximal inhibitory concentration (IC50) is not above 100 nM.

In turn, `O=C(Nc1cccc2ncn(C(CN3CCOCC3)c3ccccc3)c(=O)c12)c1cc(Cl)c(O)c(Cl)c1` (stereo not shown) [Example 123, 3,5-dichloro-4-hydroxy-N-(3-(2-morpholino-1-phenylethyl)-4-oxo-3,4-dihydroquinazolin-5-yl)benzamide] gave an IC50 of 100 to 500 nM.
